{"source": "patent US20240385200A1", "about": "“COMPOSITIONS AND METHODS OF DETERMINING PH AND POTASSIUM CONCENTRATION IN SAMPLES” (The University of Chicago, priority 2023, published 2024)", "tested_on": "TGN-resident K^+ channels", "details": "UT HEK 293T cells; TEA 10 mM, 10 min; resting ~102 mM", "procedure": "EE and TGN pH and [K^+] measurements were carried out using pHlicKer^EE/TGN in HEK 293T cells transfected with hMSR1 and scFv-furin respectively. For EEs, HEK 293T cells were pulsed with 250 nM pHlicKer^EE for 10 min and chased for 10 min. For TGN, HEK 293T cells were pulsed with 250 nM pHlicKer^TGN for 90 min and chased for 90 min. Cells were washed with 1×PBS three times and then imaged. For recycling endosomes, HEK 293T cells were pulsed with 250 nM pHlicKer^RE for 15 min and chased for 30 min. Cells were washed with 1×PBS three times and then imaged using a widefield microscope.\nCalculating pH-corrected [K^+] in early endosomes, trans-Golgi network, and recycling endosomes. To correct for pH and obtain K^+ values, the Kd of pHlicKer in single endosomes was calculated based on the Kd calibration plot versus pH. The pH of the organelle was measured from the D/A values calibrated across pH 5.5-7.0. Donor (D) and acceptor (A) images were background subtracted by drawing a region of interest outside the cells. The D image was duplicated, and a threshold was set to create a binary mask. Background-subtracted D and A images were then multiplied with the binary mask to get processed D and A images."}
{"smiles": "CC[N+](CC)(CC)CC.[Cl-]", "note": "[TEA, tetraethyl ammonium chloride]", "values": [{"measurement": "[K+]TGN", "value": "~73", "unit": "mM"}]}
